# Data from ChEMBL document CHEMBL1151340, “Antimicrobial agents from higher plants. Antimicrobial isoflavanoids and related substances from Glycyrrhiza glabra L. var. typica” (1980).
# Active and inactive are the calls of the source. The calls are words filed in the database; no cut-off is given here.
# Legend:
# Candida albicans [1] = assay: Antifungal activity against Candida albicans ATCC 10231 at 100 mcg/ml by agar-dilution streak method; format: functional, organism-based
# [2] = system: Mycolicibacterium smegmatis; assay: Antibacterial activity against Mycobacterium smegmatis ATCC 607 by agar-dilution streak method; format: functional
# [3] = system: Salmonella enterica subsp. enterica serovar Gallinarum; assay: Antibacterial activity against Salmonella gallinarum ATCC 9184 at 100 mcg/ml by agar-dilution streak method; format: functional, organism-based
# Escherichia coli [4] = assay: Antibacterial activity against Escherichia coli ATCC 9637 at 100 mcg/ml by agar-dilution streak method; format: functional, organism-based
# Staphylococcus aureus [5] = assay: Antibacterial activity against Staphylococcus aureus ATCC 13709 by agar-dilution streak method; format: functional
# Klebsiella pneumoniae [6] = assay: Antibacterial activity against Klebsiella pneumoniae ATCC 10031 at 100 mcg/ml by agar-dilution streak method; format: functional, organism-based
# [7] = system: Mycolicibacterium smegmatis; assay: Antibacterial activity against Mycobacterium smegmatis ATCC 607 at 100 mcg/ml by agar-dilution streak method; format: functional
# Staphylococcus aureus [8] = assay: Antibacterial activity against Staphylococcus aureus ATCC 13709 at 100 mcg/ml by agar-dilution streak method; format: functional, organism-based
# Candida albicans [9] = assay: Antifungal activity against Candida albicans ATCC 10231 by agar-dilution streak method; format: functional
# Escherichia coli [10] = assay: Antibacterial activity against Escherichia coli ATCC 9637 by agar-dilution streak method; format: functional
# Klebsiella pneumoniae [11] = assay: Antibacterial activity against Klebsiella pneumoniae ATCC 10031 by agar-dilution streak method; format: functional
# [12] = system: Salmonella enterica subsp. enterica serovar Gallinarum; assay: Antibacterial activity against Salmonella gallinarum ATCC 9184 by agar-dilution streak method; format: functional
Compound,MIC [2] [µg/mL],MIC (Staphylococcus aureus [5]) [µg/mL],MIC (Candida albicans [9]) [µg/mL],MIC [7] [µg/mL],MIC (Klebsiella pneumoniae [11]) [µg/mL],MIC [12] [µg/mL],MIC (Escherichia coli [10]) [µg/mL],Activity (Candida albicans [1]),Activity [3],Activity (Escherichia coli [4]),Activity (Klebsiella pneumoniae [6]),Activity [7],Activity (Staphylococcus aureus [8]),Activity (Escherichia coli [10])
COc1c(O)ccc([C@@H]2COc3c(ccc4c3C=CC(C)(C)O4)C2)c1O,–,50,–,–,–,–,–,inactive,inactive,inactive,inactive,inactive,–,–
COc1ccc(-c2coc3cc(O)ccc3c2=O)cc1,–,–,–,–,–,–,–,inactive,inactive,inactive,inactive,inactive,inactive,–
CC1(C)C=Cc2c(O)ccc(C3=Cc4ccc(O)cc4OC3)c2O1 [GLABRENE],25,25,–,–,–,–,–,inactive,inactive,inactive,inactive,–,–,–
CC1(C)C=Cc2c(ccc([C@@H]3COc4c(ccc5c4C=CC(C)(C)O5)C3)c2O)O1 [HISPAGLABRIDIN B],3.12,6.25,–,–,–,–,–,inactive,inactive,inactive,inactive,–,–,–
CC1(C)C=Cc2c(ccc([C@@H]3COc4cc(O)ccc4C3)c2O)O1 [PHASEOLLINISOFLAVAN],–,25,–,12.5,–,–,–,inactive,inactive,inactive,inactive,–,–,–

# Continued by falling MIC (Staphylococcus aureus [5]), values first:
MIC [2] [µg/mL],MIC (Staphylococcus aureus [5]) [µg/mL],MIC (Candida albicans [9]) [µg/mL],MIC [7] [µg/mL],MIC (Klebsiella pneumoniae [11]) [µg/mL],MIC [12] [µg/mL],MIC (Escherichia coli [10]) [µg/mL],Compound,Activity (Candida albicans [1]),Activity [3],Activity (Escherichia coli [4]),Activity (Klebsiella pneumoniae [6]),Activity [7],Activity (Staphylococcus aureus [8]),Activity (Escherichia coli [10])
6.25,6.25,–,–,–,–,–,CC(C)=CCc1cc([C@H]2Oc3c(ccc(O)c3CC=C(C)C)C(=O)[C@@H]2O)ccc1O,inactive,inactive,inactive,inactive,–,–,–
3.12,6.25,–,–,–,–,–,COc1ccc([C@@H]2COc3c(ccc4c3C=CC(C)(C)O4)C2)c(O)c1,inactive,inactive,inactive,inactive,–,–,–
6.25,6.25,25,–,–,–,–,CC1(C)C=Cc2c(ccc3c2OC[C@@H](c2ccc(O)cc2O)C3)O1 [GLABRIDIN],–,inactive,inactive,inactive,–,inactive,inactive
1.25,5,–,–,2.5,50,5,CN[C@@H]1[C@H](O[C@H]2[C@H](O[C@H]3[C@H](O)[C@@H](O)[C@H](N=C(N)N)[C@@H](O)[C@@H]3N=C(N)N)O[C@@H](C)[C@]2(O)C=O)O[C@@H](CO)[C@H](O)[C@H]1O.CN[C@@H]1[C@H](O[C@H]2[C@H](O[C@H]3[C@H](O)[C@@H](O)[C@H](N=C(N)N)[C@@H](O)[C@@H]3N=C(N)N)O[C@@H](C)[C@]2(O)C=O)O[C@@H](CO)[C@H](O)[C@H]1O.O=S(=O)(O)O.O=S(=O)(O)O.O=S(=O)(O)O [STREPTOMYCIN SULFATE],inactive,–,–,–,–,–,–
3.12,3.12,–,–,–,–,–,CC(C)=CCc1c(O)ccc([C@@H]2COc3c(ccc4c3C=CC(C)(C)O4)C2)c1O [HISPAGLABRIDIN A],inactive,inactive,inactive,inactive,–,–,–
1.56,1.56,–,–,–,–,–,CC(C)=CCc1cc([C@@H]2CC(=O)c3ccc(O)c(CC=C(C)C)c3O2)ccc1O [GLABROL],inactive,inactive,inactive,inactive,–,–,–
